Reference: PubChem BioAssay AID1918995 (Molecular Pharmacology Branch, DTP, NCI, 2023)
“And” between values parts separate entries of the source, which are not always exact repeats. Equal values may be shown once.

System: 324938-238-R-J1-PDC complex spheroid growth, % test/control
Experiment: Anticancer human tumor 324938-238-R-J1-PDC patient-derived bladder carcinoma cell line growth inhibition [AhR]
Conditions: for viability, T/C: stronger effect = lower value
In short: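 Complex tumor spheroids co-cultured with HUVEC and human MSC stroma; AhR antagonists tested in combination with standard-of-care and investigational agents. Top concentration at or near clinical Cmax (else 10 microM), half-log dilutions; growth expressed as percent test/control.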

[1] = curve of first compound, second compound 0.1 µM
[2] = curve of first compound, second compound 0.316 µM
[3] = curve of first compound, second compound 1 µM
[4] = curve of first compound, second compound 3.16 µM
[5] = curve of first compound, second compound 10 µM
[6] = second compound 0.1 µM, first compound 0.000949 µM
[7] = second compound 0.1 µM, first compound 0.003 µM
[8] = second compound 0.1 µM, first compound 0.00949 µM
[9] = second compound 0.1 µM, first compound 0.03 µM
[10] = second compound 0.1 µM, first compound 0.0949 µM
[11] = second compound 0.1 µM, first compound 0.3 µM
[12] = second compound 0.316 µM, first compound 0.000949 µM
[13] = second compound 0.316 µM, first compound 0.003 µM
[14] = second compound 0.316 µM, first compound 0.00949 µM
[15] = second compound 0.316 µM, first compound 0.03 µM
[16] = second compound 0.316 µM, first compound 0.0949 µM
[17] = second compound 0.316 µM, first compound 0.3 µM
[18] = second compound 1 µM, first compound 0.000949 µM
[19] = second compound 1 µM, first compound 0.003 µM
[20] = second compound 1 µM, first compound 0.00949 µM
[21] = second compound 1 µM, first compound 0.03 µM
[22] = second compound 1 µM, first compound 0.0949 µM
[23] = second compound 1 µM, first compound 0.3 µM
[24] = second compound 3.16 µM, first compound 0.000949 µM
[25] = second compound 3.16 µM, first compound 0.003 µM
[26] = second compound 3.16 µM, first compound 0.00949 µM
[27] = second compound 3.16 µM, first compound 0.03 µM
[28] = second compound 3.16 µM, first compound 0.0949 µM
[29] = second compound 3.16 µM, first compound 0.3 µM
[30] = second compound 10 µM, first compound 0.000949 µM
[31] = second compound 10 µM, first compound 0.003 µM
[32] = second compound 10 µM, first compound 0.00949 µM
[33] = second compound 10 µM, first compound 0.03 µM
[34] = second compound 10 µM, first compound 0.0949 µM
[35] = second compound 10 µM, first compound 0.3 µM
[36] = second compound 0.1 µM, first compound 0.00316 µM
[37] = second compound 0.1 µM, first compound 0.01 µM
[38] = second compound 0.1 µM, first compound 0.0316 µM
[39] = second compound 0.1 µM, first compound 0.1 µM
[40] = second compound 0.1 µM, first compound 0.316 µM
[41] = second compound 0.1 µM, first compound 1 µM
[42] = second compound 0.316 µM, first compound 0.00316 µM
[43] = second compound 0.316 µM, first compound 0.01 µM
[44] = second compound 0.316 µM, first compound 0.0316 µM
[45] = second compound 0.316 µM, first compound 0.1 µM
[46] = second compound 0.316 µM, first compound 0.316 µM
[47] = second compound 0.316 µM, first compound 1 µM
[48] = second compound 1 µM, first compound 0.00316 µM
[49] = second compound 1 µM, first compound 0.01 µM
[50] = second compound 1 µM, first compound 0.0316 µM
[51] = second compound 1 µM, first compound 0.1 µM
[52] = second compound 1 µM, first compound 0.316 µM
[53] = second compound 1 µM, first compound 1 µM
[54] = second compound 3.16 µM, first compound 0.00316 µM
[55] = second compound 3.16 µM, first compound 0.01 µM
[56] = second compound 3.16 µM, first compound 0.0316 µM
[57] = second compound 3.16 µM, first compound 0.1 µM
[58] = second compound 3.16 µM, first compound 0.316 µM
[59] = second compound 3.16 µM, first compound 1 µM
[60] = second compound 10 µM, first compound 0.00316 µM
[61] = second compound 10 µM, first compound 0.01 µM
[62] = second compound 10 µM, first compound 0.0316 µM
[63] = second compound 10 µM, first compound 0.1 µM
[64] = second compound 10 µM, first compound 0.316 µM
[65] = second compound 10 µM, first compound 1 µM
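Also: spheroids exposed to agents for seven days before viability read.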

Structure (SMILES): CCc1c2c(nc3ccc(O)cc13)-c1cc3c(c(=O)n1C2)COC(=O)[C@]3(O)CC + Cc1cncc(-c2nc(NCCc3c[nH]c4ccccc34)c3ncn(C(C)C)c3n2)c1
- IC50 [1]: > 300 nM
- IC50 [2]: > 300 nM
- IC50 [3]: > 300 nM
- IC50 [4]: 204 nM
- IC50 [5]: < 0.949 nM
- viability, T/C [6]: 89.1%
- viability, T/C [7]: 71.7%
- viability, T/C [8]: 91.8%
- viability, T/C [9]: 65.7%
- viability, T/C [10]: 83.1%
- viability, T/C [11]: 80.9%
- viability, T/C [12]: 82.3%
- viability, T/C [13]: 81.9%
- viability, T/C [14]: 102%
- viability, T/C [15]: 97.3%
- viability, T/C [16]: 63.5%
- viability, T/C [17]: 61.4%
- viability, T/C [18]: 88.5%
- viability, T/C [19]: 71.3%
- viability, T/C [20]: 93.6%
- viability, T/C [21]: 76%
- viability, T/C [22]: 73.9%
- viability, T/C [23]: 70.3%
- viability, T/C [24]: 71.7%
- viability, T/C [25]: 95.7%
- viability, T/C [26]: 91.7%
- viability, T/C [27]: 79.3%
- viability, T/C [28]: 55.4%
- viability, T/C [29]: 47.2%
- viability, T/C [30]: 2.77%
- viability, T/C [31]: 3.5%
- viability, T/C [32]: 8.95%
- viability, T/C [33]: 6.69%
- viability, T/C [34]: 10.2%
- viability, T/C [35]: 10.6%

Structure (SMILES): Cc1ccccc1N=Nc1ccc(NC(=O)c2ccnn2C)c(C)c1
- viability, T/C (compound 10 µM): 79.2% [middle of 20 runs]
- IC50 (compound alone, run of 07/26/2022): > 10000 nM

Structure (SMILES): Nc1ncn(C2CC(O)C(CO)O2)c(=O)n1 (centres undefined) + Cc1cncc(-c2nc(NCCc3c[nH]c4ccccc34)c3ncn(C(C)C)c3n2)c1
- IC50 [1]: > 1000 nM
- IC50 [2]: > 1000 nM
- IC50 [3]: > 1000 nM
- IC50 [4]: > 1000 nM
- IC50 [5]: < 3.16 nM
- viability, T/C [36]: 120%
- viability, T/C [37]: 86.4%
- viability, T/C [38]: 101%
- viability, T/C [39]: 85.2%
- viability, T/C [40]: 128%
- viability, T/C [41]: 103%
- viability, T/C [42]: 111%
- viability, T/C [43]: 103%
- viability, T/C [44]: 135%
- viability, T/C [45]: 92.9%
- viability, T/C [46]: 80.8%
- viability, T/C [47]: 161%
- viability, T/C [48]: 93.4%
- viability, T/C [49]: 107%
- viability, T/C [50]: 127%
- viability, T/C [51]: 125%
- viability, T/C [52]: 84.8%
- viability, T/C [53]: 98.2%
- viability, T/C [54]: 83.5%
- viability, T/C [55]: 76.6%
- viability, T/C [56]: 104%
- viability, T/C [57]: 76.9%
- viability, T/C [58]: 100%
- viability, T/C [59]: 112%
- viability, T/C [60]: 4.98%
- viability, T/C [61]: 1.77%
- viability, T/C [62]: 6.15%
- viability, T/C [63]: 3.98%
- viability, T/C [64]: 4.54%
- viability, T/C [65]: 7.74%

Structure (SMILES): Nc1ncn(C2CC(O)C(CO)O2)c(=O)n1 (centres undefined) + Cc1ccccc1N=Nc1ccc(NC(=O)c2ccnn2C)c(C)c1
- IC50 [1]: > 1000 nM
- IC50 [2]: > 1000 nM
- IC50 [3]: > 1000 nM
- IC50 [4]: > 1000 nM
- IC50 [5]: > 1000 nM
- viability, T/C [36]: 90.1%
- viability, T/C [37]: 94.7%
- viability, T/C [38]: 97.8%
- viability, T/C [39]: 83.3%
- viability, T/C [40]: 71.2%
- viability, T/C [41]: 65.3%
- viability, T/C [42]: 81.9%
- viability, T/C [43]: 87.9%
- viability, T/C [44]: 89.4%
- viability, T/C [45]: 78.5%
- viability, T/C [46]: 69.7%
- viability, T/C [47]: 64.8%
- viability, T/C [48]: 85.3%
- viability, T/C [49]: 83%
- viability, T/C [50]: 89.5%
- viability, T/C [51]: 74.7%
- viability, T/C [52]: 82.3%
- viability, T/C [53]: 62%
- viability, T/C [54]: 74.9%
- viability, T/C [55]: 78.7%
- viability, T/C [56]: 77.2%
- viability, T/C [57]: 68.7%
- viability, T/C [58]: 70%
- viability, T/C [59]: 60.9%
- viability, T/C [60]: 77.9%
- viability, T/C [61]: 76.1%
- viability, T/C [62]: 78.6%
- viability, T/C [63]: 73.6%
- viability, T/C [64]: 73.4%
- viability, T/C [65]: 60.7%

Structure (SMILES): CC1COCCN1c1cc(C2(S(C)(=N)=O)CC2)nc(-c2ccnc3[nH]ccc23)n1 (centres undefined)
- viability, T/C (compound 0.0316 µM): 93% and 98% and 106%
- viability, T/C (compound 0.1 µM): 114% and 112% and 116%
- viability, T/C (compound 0.316 µM): 90% and 106% and 85.7%
- viability, T/C (compound 1 µM): 93.9% and 90.2% and 86.4%
- viability, T/C (compound 3.16 µM): 76.7% and 70.4% and 43.9%
- viability, T/C (compound 10 µM): 77.1% and 33.6% and 25.4%
- IC50 (curve of compound): > 10000 nM and 5910 nM and 2940 nM

Structure (SMILES): CCc1c2c(nc3ccc(O)cc13)-c1cc3c(c(=O)n1C2)COC(=O)[C@]3(O)CC + CC(CO)NC(=O)c1cc(-c2ccc(Cl)cc2)nn(-c2cnn(C)c2)c1=O
- IC50 [1]: < 0.949 nM
- IC50 [2]: < 0.949 nM
- IC50 [3]: < 0.949 nM
- IC50 [4]: < 0.949 nM
- IC50 [5]: < 0.949 nM
- viability, T/C [6]: 41.3%
- viability, T/C [7]: 28.7%
- viability, T/C [8]: 15.3%
- viability, T/C [9]: 17.3%
- viability, T/C [10]: 17.4%
- viability, T/C [11]: 15.9%
- viability, T/C [12]: 37.5%
- viability, T/C [13]: 31%
- viability, T/C [14]: 17.1%
- viability, T/C [15]: 16.9%
- viability, T/C [16]: 15.8%
- viability, T/C [17]: 18.6%
- viability, T/C [18]: 43.3%
- viability, T/C [19]: 29%
- viability, T/C [20]: 19.6%
- viability, T/C [21]: 15.5%
- viability, T/C [22]: 16.1%
- viability, T/C [23]: 15.3%
- viability, T/C [24]: 34%
- viability, T/C [25]: 28.9%
- viability, T/C [26]: 18.9%
- viability, T/C [27]: 14.5%
- viability, T/C [28]: 14.6%
- viability, T/C [29]: 13.8%
- viability, T/C [30]: 36.3%
- viability, T/C [31]: 31.8%
- viability, T/C [32]: 24.4%
- viability, T/C [33]: 17.1%
- viability, T/C [34]: 18.6%
- viability, T/C [35]: 17%

Structure (SMILES): O=C(C=Cc1cccc(S(=O)(=O)Nc2ccccc2)c1)NO + Cc1ccccc1N=Nc1ccc(NC(=O)c2ccnn2C)c(C)c1
- IC50 [1]: 3110 nM
- IC50 [2]: 2790 nM
- IC50 [3]: 3060 nM
- IC50 [4]: 2570 nM
- IC50 [5]: 2790 nM
- viability, T/C [38]: 103%
- viability, T/C [39]: 91.5%
- viability, T/C [40]: 98.4%
- viability, T/C [41]: 65.5%
- viability, T/C (second compound 0.1 µM, first compound 3.16 µM): 53.8%
- viability, T/C (second compound 0.1 µM, first compound 10 µM): 33.4%
- viability, T/C [44]: 98%
- viability, T/C [45]: 102%
- viability, T/C [46]: 81.1%
- viability, T/C [47]: 69%
- viability, T/C (second compound 0.316 µM, first compound 3.16 µM): 48.1%
- viability, T/C (second compound 0.316 µM, first compound 10 µM): 32.5%
- viability, T/C [50]: 93.3%
- viability, T/C [51]: 99.1%
- viability, T/C [52]: 84.4%
- viability, T/C [53]: 75.8%
- viability, T/C (second compound 1 µM, first compound 3.16 µM): 48.2%
- viability, T/C (second compound 1 µM, first compound 10 µM): 33.2%
- viability, T/C [56]: 84.1%
- viability, T/C [57]: 84.6%
- viability, T/C [58]: 83.5%
- viability, T/C [59]: 66.3%
- viability, T/C (second compound 3.16 µM, first compound 3.16 µM): 47.2%
- viability, T/C (second compound 3.16 µM, first compound 10 µM): 38.6%
- viability, T/C [62]: 78.4%
- viability, T/C [63]: 85.2%
- viability, T/C [64]: 71.3%
- viability, T/C [65]: 62.1%
- viability, T/C (second compound 10 µM, first compound 3.16 µM): 49.6%
- viability, T/C (second compound 10 µM, first compound 10 µM): 36.3%
